{
  "source": "ChEMBL document CHEMBL1201862",
  "about": "“PubChem BioAssay data set” (2004)",
  "key": {"[1]": {"molecular_target": "Lysine-specific demethylase 4C (Homo sapiens, UniProt Q9H3R0)", "sequence (Q9H3R0 whole entry)": "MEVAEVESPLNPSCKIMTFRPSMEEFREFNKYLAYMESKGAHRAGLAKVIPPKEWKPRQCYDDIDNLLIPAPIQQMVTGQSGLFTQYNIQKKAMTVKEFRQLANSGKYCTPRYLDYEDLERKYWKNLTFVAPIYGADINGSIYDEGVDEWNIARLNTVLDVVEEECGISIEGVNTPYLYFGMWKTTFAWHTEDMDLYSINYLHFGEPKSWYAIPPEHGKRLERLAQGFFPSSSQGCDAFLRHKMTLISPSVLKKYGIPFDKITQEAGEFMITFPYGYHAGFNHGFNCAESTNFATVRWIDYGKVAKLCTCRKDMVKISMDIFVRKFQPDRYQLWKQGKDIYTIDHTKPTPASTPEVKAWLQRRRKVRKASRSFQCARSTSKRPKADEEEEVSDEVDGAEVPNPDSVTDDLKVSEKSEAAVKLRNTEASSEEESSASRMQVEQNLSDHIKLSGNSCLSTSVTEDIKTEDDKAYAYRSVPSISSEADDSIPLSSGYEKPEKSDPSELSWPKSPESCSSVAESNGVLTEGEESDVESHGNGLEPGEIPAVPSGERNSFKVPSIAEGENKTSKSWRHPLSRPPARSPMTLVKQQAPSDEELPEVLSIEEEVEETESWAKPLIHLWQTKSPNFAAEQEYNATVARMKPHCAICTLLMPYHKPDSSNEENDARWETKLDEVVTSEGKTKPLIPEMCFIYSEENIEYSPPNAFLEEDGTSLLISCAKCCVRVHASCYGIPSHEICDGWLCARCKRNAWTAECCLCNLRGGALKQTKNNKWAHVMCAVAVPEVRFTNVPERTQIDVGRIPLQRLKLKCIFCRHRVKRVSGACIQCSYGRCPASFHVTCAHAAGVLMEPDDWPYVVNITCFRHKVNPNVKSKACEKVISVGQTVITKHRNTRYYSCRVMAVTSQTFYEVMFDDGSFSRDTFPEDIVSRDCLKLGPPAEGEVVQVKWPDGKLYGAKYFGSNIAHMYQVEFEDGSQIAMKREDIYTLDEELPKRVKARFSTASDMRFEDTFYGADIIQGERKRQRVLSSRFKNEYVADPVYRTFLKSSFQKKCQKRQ", "assay": "GASC-1 (JMJD2C) histone demethylase inhibitors, dose response, biochemical, DELFIA europium, cherry-picked samples (AID 488835)", "format": "functional"}, "[2]": {"molecular_target": "T1, Tyrosine-protein phosphatase non-receptor type 7 (Homo sapiens, UniProt P35236)", "T1 sequence (P35236 whole entry)": "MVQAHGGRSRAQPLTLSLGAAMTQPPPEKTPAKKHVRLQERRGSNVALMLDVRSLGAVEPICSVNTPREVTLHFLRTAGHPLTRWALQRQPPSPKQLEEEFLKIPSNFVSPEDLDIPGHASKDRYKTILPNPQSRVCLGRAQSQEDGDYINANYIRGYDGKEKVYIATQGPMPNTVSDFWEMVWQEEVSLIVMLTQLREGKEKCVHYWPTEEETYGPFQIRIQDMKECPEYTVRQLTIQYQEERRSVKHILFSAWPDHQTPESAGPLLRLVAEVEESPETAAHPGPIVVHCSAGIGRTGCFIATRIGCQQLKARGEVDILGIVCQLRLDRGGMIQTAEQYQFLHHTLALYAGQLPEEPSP", "format": "functional"}, "[3]": {"molecular_target": "T2, Tyrosine-protein phosphatase non-receptor type 22 (Homo sapiens, UniProt Q9Y2R2)", "T2 sequence (Q9Y2R2 whole entry)": "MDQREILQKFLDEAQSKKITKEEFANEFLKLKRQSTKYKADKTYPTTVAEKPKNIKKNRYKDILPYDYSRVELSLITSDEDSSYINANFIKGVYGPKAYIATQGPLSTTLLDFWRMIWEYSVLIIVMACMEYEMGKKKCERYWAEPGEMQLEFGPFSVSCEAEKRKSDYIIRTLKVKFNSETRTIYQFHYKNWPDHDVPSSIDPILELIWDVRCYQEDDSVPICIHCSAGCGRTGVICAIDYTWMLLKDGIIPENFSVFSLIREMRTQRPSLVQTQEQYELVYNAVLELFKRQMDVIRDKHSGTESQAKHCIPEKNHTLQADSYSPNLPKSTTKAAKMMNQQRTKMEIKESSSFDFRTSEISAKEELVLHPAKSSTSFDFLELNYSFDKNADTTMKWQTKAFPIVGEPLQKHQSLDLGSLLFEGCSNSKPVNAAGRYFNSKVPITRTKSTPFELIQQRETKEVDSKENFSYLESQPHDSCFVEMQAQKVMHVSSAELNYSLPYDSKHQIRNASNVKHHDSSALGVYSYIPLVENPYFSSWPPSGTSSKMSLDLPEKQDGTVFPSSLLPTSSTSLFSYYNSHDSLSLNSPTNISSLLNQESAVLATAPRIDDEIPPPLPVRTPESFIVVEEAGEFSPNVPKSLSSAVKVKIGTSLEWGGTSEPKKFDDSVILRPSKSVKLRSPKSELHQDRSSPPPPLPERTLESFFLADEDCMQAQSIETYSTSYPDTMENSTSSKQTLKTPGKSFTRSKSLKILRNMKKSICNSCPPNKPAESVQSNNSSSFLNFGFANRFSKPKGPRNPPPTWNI", "format": "functional"}, "[4]": {"molecular_target": "T2, Tyrosine-protein phosphatase non-receptor type 22", "format": "functional", "remark": "listed apart in the source"}, "[5]": {"molecular_target": "T3, Delta-type opioid receptor (Homo sapiens, UniProt P41143)", "T3 sequence (P41143 whole entry)": "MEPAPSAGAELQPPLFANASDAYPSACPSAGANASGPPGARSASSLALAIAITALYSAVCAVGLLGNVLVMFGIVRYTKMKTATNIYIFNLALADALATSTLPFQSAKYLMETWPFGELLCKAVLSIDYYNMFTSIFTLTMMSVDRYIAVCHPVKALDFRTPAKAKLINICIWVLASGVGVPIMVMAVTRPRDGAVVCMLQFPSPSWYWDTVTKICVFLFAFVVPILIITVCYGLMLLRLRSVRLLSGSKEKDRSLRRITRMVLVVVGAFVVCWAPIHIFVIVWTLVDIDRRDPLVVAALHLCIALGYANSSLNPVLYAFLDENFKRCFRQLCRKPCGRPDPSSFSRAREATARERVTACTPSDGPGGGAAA", "assay": "HTS Image-Based Screen for Antagonists of the DOR Receptor. [Related pubchem assays (depositor defined):AID1777, AID1785, AID1786, AID2133]", "format": "functional"}, "Mu-type opioid receptor": {"molecular_target": "Mu-type opioid receptor (Homo sapiens, UniProt P35372)", "sequence (P35372 whole entry)": "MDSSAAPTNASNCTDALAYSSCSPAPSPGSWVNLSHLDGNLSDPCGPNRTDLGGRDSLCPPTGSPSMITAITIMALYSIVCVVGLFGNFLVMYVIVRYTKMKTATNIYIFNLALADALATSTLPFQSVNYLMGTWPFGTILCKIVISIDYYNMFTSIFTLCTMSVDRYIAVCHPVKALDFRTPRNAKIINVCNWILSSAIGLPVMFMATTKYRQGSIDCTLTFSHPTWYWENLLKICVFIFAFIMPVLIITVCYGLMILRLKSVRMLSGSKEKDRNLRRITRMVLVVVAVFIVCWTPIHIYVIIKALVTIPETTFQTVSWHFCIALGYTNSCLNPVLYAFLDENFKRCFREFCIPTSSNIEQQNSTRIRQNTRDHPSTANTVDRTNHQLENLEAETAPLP", "assay": "HTS Image-Based Screen for Agonists of the MOR Receptor. [Related pubchem assays (depositor defined):AID1777, AID1785, AID1786, AID2133]", "format": "functional"}, "[6]": {"molecular_target": "T3, Delta-type opioid receptor", "assay": "HTS Image-Based Screen for Agonists of the DOR Receptor. [Related pubchem assays (depositor defined):AID1777, AID1786, AID2133]", "format": "functional"}, "[7]": {"molecular_target": "T4, Kappa-type opioid receptor (Homo sapiens, UniProt P41145)", "T4 sequence (P41145 whole entry)": "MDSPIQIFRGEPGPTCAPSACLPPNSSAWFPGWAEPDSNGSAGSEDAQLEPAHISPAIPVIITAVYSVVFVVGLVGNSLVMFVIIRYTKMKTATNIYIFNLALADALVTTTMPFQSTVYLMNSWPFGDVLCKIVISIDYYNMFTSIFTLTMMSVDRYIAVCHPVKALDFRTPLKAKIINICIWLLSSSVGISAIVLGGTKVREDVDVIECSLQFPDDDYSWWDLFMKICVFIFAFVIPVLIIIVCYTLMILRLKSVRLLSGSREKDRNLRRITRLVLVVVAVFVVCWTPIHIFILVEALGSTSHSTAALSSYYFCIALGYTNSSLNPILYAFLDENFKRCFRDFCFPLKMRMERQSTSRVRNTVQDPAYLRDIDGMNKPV", "format": "functional"}, "[8]": {"molecular_target": "T4, Kappa-type opioid receptor", "format": "functional", "remark": "listed apart in the source"}, "[9]": {"molecular_target": "T5, Corticotropin-releasing factor receptor 2/Corticotropin-releasing factor-binding protein (Homo sapiens, UniProt P24387+Q13324)", "T5 sequence (Q13324 whole entry)": "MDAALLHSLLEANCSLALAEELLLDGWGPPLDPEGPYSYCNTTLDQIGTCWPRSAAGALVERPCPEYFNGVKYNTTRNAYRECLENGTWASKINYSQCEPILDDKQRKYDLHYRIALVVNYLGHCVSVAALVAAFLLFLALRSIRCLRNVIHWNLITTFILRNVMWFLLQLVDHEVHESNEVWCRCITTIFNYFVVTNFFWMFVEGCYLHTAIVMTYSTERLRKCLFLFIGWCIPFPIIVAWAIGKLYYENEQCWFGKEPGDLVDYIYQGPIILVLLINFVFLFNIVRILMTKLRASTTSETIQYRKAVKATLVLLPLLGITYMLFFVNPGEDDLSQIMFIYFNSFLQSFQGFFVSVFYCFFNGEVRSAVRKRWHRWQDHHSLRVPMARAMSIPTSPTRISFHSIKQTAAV", "T5 sequence (P24387 whole entry)": "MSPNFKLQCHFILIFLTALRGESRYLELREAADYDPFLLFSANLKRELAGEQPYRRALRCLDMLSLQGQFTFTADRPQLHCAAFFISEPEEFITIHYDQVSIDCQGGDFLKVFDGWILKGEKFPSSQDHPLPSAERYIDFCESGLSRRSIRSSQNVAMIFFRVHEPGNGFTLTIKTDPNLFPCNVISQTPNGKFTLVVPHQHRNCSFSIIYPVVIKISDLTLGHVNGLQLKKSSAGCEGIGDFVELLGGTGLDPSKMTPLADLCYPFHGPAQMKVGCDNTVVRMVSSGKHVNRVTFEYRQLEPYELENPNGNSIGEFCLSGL", "assay": "activators of CRF receptor 2 with binding protein – uHTS hits, confirmation (AID 602473)", "format": "functional", "conditions": "read-out: EC50_Mean"}, "Vero [10]": {"test_system": "Vero", "assay": "cells", "format": "functional, cell-based", "conditions": "Chlorocebus sabaeus"}, "Vero [11]": {"test_system": "Vero", "assay": "cells", "format": "functional", "conditions": "Chlorocebus sabaeus"}},
  "note": "The source made the active and inactive calls.",
  "data": [
    {"smiles": "CCOc1ccc(N2C(=O)CC(N(O)c3ccccc3)C2=O)cc1", "note": "(configuration not stated)", "values": [
      {"measurement": "AC50", "setting": "[1]", "value": "12.7 µM (active)"}
    ]},
    {"smiles": "Cc1ccc(C)n1-c1ccc(-c2cc[nH]n2)cc1", "values": [
      {"measurement": "IC50", "setting": "[2]", "value": "> 79.4 µM (inactive)"},
      {"measurement": "IC50", "setting": "[3]", "value": "> 79.4 µM (inactive)"},
      {"measurement": "IC50", "setting": "[4]", "value": "> 79.4 µM (inactive)"}
    ]},
    {"smiles": "O=C(c1ccc([N+](=O)[O-])cc1)N(Cc1ccc(Cl)cc1)N1C(=O)CCCC1=O", "values": [
      {"measurement": "IC50", "setting": "[5]", "value": "> 32 µM (inactive)"},
      {"measurement": "EC50", "setting": "Mu-type opioid receptor", "value": "> 32 µM (inactive)"},
      {"measurement": "EC50", "setting": "[6]", "value": "> 32 µM (inactive)"},
      {"measurement": "EC50", "setting": "[7]", "value": "> 35", "unit": "µM"},
      {"measurement": "EC50", "setting": "[8]", "value": 5.66, "unit": "µM"},
      {"measurement": "EC50", "setting": "[9]", "value": "0.709 µM (active)"}
    ]},
    {"smiles": "COc1cccc(/C=C/C(=O)c2ccc3c(c2)OCO3)c1OC", "values": [
      {"measurement": "IC50", "setting": "Vero [10]", "value": "> 25 µM (active)"},
      {"measurement": "CC50", "setting": "Vero [11]", "value": "> 25 µM (active)"}
    ]}
  ]
}
